Experimental data: US20200179392A1, “Idelalisib for Treating Proliferative Vitreoretinopathy and Abnormal Intraocular Neovascularization” (priority 2016, published 2020)

Legend:
HRECs [1] = assay: VEGF-induced cell proliferation assay in HRECs; format: cell-based, human; conditions: VEGF 20 ng/ml, idelalisib 5 μM, 48 hours
Procedure: In a cell proliferation assay, HRECs cells were seeded into 24-well plates at a density of 30,000 cells/well in an endothelial growth medium kit. After attaching the plates, the cells were starved for growth factors for 7 hours, and then treated with VEGF (20 ng/ml) or VEGF plus idelalisib (5 μM). After 48 hours, the cells were trypsin detached and then counted in a hemocytometer under a light microscope as shown in FIG. 10A from three independent experiments^50, 61.

HRECs [2] = assay: VEGF-induced wound healing (migration) assay in HRECs; format: cell-based, human; conditions: VEGF 20 ng/ml, idelalisib 5 μM, 18 hours
Procedure: A wound healing assay was performed as previously described^62 with minor modifications. Once cells reached 90% confluence in 48-well plates, they were starved for growth factors for 7 hours. A wound was created by scraping the cell monolayer with a sterile pipette tip (200 μl). The cells were washed twice to remove detached cells and then treated with VEGF (20 ng/ml) or VEGF plus idelalisib (5 μM). The wound was photographed at 18 hours post wounding with an EVOS FL Auto microscope (Thermo Scientific) as shown in 8B from three independent experiments^61.

activation of Akt = assay: VEGF-induced activation of Akt; format: cell-based
[3] = test system: PVR induced by RPEM cells; assay: Experimental PVR in rabbits; format: in vivo, rabbit
Procedure: PVR was induced in the right eyes of two to three-month-old Dutch Belted pigmented rabbits. Briefly, one week after gas vitrectomy, rabbits were intravitreally injected with platelet-rich plasma (PRP, 0.1 ml) and RPEM cells (300,000 cells) supplemented with either idelalisib (10 μM) or its vehicle (0.1% DMSO). Subsequently, the rabbits were examined at the indicated times and PVR stage was evaluated using a double blind approach with an indirect ophthalmoscope through a 30D lens, and then the PVR status for each rabbit was plotted (4A). The […] values are indicated at the top of the figure after a Mann-Whitney analysis. Representative rabbits on day 28 were examined by eletroretinography (ERG) (4B), optical coherence tomography (OCT) (4C) and histological analysis by hematoxylin & eosin stain (4D). The numbers in C and D (0, 2, 3, and 5) denote PVR stages in the examined rabbits. Single arrow points to the retina and double arrows point to cellular fibrotic membranes (4C). Arrowhead and double arrows indicate cellular membranes (4D).
As previously described^1, 55, PVR was induced in right eyes of two-three months old Dutch Belted rabbits purchased from Covance (Denver, Pa.). Briefly, a gas vitrectomy was performed by injecting 0.1 ml of perfluoropropane (C3F8) (Alcon, Fort Worth, Tex.) into the vitreous cavity 4 mm posterior to the corneal limbus. […]

RPEM cells [4] = assay: Collagen contraction assay, RPEM cells with vitreous; format: cell-based, human; conditions: idelalisib 5 μM, 48 hours
Procedure: 3D. The RPEM cells were re-suspended in 1.5 mg/ml of neutralized collagen I at a density of 1×10^6 cells/ml and seeded into wells of a 24-well plate. The solidified gels were overlaid with either DMEM/F12 alone (-), or RV supplemented with idelalisib (5 μM) or its vehicle as indicated. After 48 hours the gel diameter was measured and the gel area were calculated. A photograph of a representative experiment is shown at the bottom of the bar graphs. The mean±standard deviation (SD) of three independent experiments is shown; * denotes […]<0.05 using an unpaired t-test. RPEM cells were re-suspended in 1.5 mg/ml of neutralized collagen […], Fremont, Calif.) (pH 7.2) at ice at a density 1×10^6 cells/ml^24, 54. The mixture was transferred into wells of 24-well plates that had been preincubated overnight with 5 mg/ml bovine serum albumin/PBS. After the collagen had polymerized at 37° C. for 90 minutes, 0.5 ml DMEM/F12 or RV (1:2 dilution in DMEM/F12) with or without idelalisib (5 μM) was added. On day 3, the gel diameter was measured and the gel area was calculated using a formula 3.14×r^2, where r is the radius of the gel. At least three independent experiments were performed^24, 55.

RPEM cells [5] = assay: Cell migration (scratch) assay, RPEM cells with vitreous; format: cell-based, human; conditions: idelalisib 5 μM, 16 hours
Procedure: 3C. After the RPEM cells in a 12-well plate reached 90% confluence, the cultured wells were scratched with a 200 μl pipet tip and treated with RV supplemented with idelalisib (5 μM) or its vehicle. 16 hours later the pictures of the cells were taken and analyzed. A representative raw data of three experiments below the bar graphs is shown. Scale bar: 500 μm. RPEM cells in a 12-well plate were grown to near confluence, and then the wells with 90% confluent cells were scratched with 200 μl pipet tip. The cells were washed with PBS and treated with DMEM/F12 or RV (1:2 dilution in DMEM/F12) with or without idelalisib (5 μM). The scratched area was photographed to capture the initial width and photographed again 16 hours later. Analysis was conducted using Adobe Photoshop CS4 software. At least three independent experiments were performed.

CC[C@H](Nc1ncnc2[nH]cnc12)c1nc2cccc(F)c2c(=O)n1-c1ccccc1 [idelalisib]
effect on VEGF-stimulated cell proliferation of HRECs (HRECs [1]): completely blocked
effect on VEGF-stimulated migration of HRECs (HRECs [2]): completely blocked
effect on VEGF-induced activation of Akt (activation of Akt): able to block
rabbits developing to PVR stage 3 ([3]; idelalisib 10 μM intravitreal with PRP and RPEM cells): one of nine
effect on pathogenesis of PVR ([3]; idelalisib 10 μM intravitreal, days 7, 14, 21 and 28, Mann-Whitney): significantly suppressed
effect on vitreous-induced collagen contraction of RPEM cells (RPEM cells [4]): completely blocked
effect on vitreous-induced migration of RPEM cells (RPEM cells [5]): prevented
